Experimental data taken from US20230322771A1, “HETEROCYCLIC GLP-1 AGONISTS” (Gasherbrum Bio, Inc., priority 2020, published 2023).

Target: GLP-1 Receptor (Homo sapiens, UniProt P43220)
Experiment: GLP-1R agonist cAMP stimulation assay (HEK293/GLP1R/CRE-LUC cells, HTRF cAMP dynamic 2 kit)
Type: cell-based
Settings: HEK293/CRE-Luc cell line (HDB) stably expressing GLP-1 Receptor; 30 min incubation at 37° C.; read-out: GLP1R cAMP Stimulation DR: EC50 (nM) [Species: Human, Assay Cell Line: HDB]
Protocol: Activation of GLP-1 receptor is known to stimulate cyclic AMP (cAMP) production in cells which indicates primary coupling to the Gαs subunit of the G protein heterotrimeric complex.
To optimize functional activity directed toward Gαs coupling, a HEK293/CRE-Luc cell line developed by HDB stably expressing the GLP-1 Receptor was used. 200× concentration of compound working solutions were prepared (Agilent Technologies Bravo) with ½ log serial dilution in 384-well Echo LDV plate (Labcyte, Cat #LP-0200). 50 nL/well 200× concentration of compound working solutions were moved to 384-well white low volume plate (Greiner, Cat #784075) using Labcyte ECHO550. 1×10^5 cells/mL HEK293/GLP1R/CRE-LUC(HD Biosciences) cell suspensions prepared with assay buffer[DPBS containing 0.5 mM IBMX(Sigma, Cat #15879) and 0.1% BSA(GENVIEW, Cat #FA016-100 g)], 10 uL cell suspensions were added to each well of previous generated assay plate which already contains 50 nl compound at 200× concentration using ThermoFisher Multidrop Combi(1000 cells/well). Seal the plate and incubate at 37° C. with 5% CO2 for 30 min.
After incubation the cAMP assay signal was generated using cAMP dynamic 2 Kit (Cisbio). 5 μL cAMP-d2 working solution was added to each well, followed with 5 μL Anti-cAMP antibody-cryptate working solution added to each well using ThermoFisher Multidrop Combi. Incubate at room temperature for 1 hour protected from light. Read the fluorescence at 665 and 615 nm with Reader PerkinElmer EnVision.
% Activity=100%×(mean RLU of test sample−mean RLU of vehicle control)/(mean RLU of MAX control−mean RLU of vehicle control))

GLP-1 Receptor, sequence (P43220 24-463): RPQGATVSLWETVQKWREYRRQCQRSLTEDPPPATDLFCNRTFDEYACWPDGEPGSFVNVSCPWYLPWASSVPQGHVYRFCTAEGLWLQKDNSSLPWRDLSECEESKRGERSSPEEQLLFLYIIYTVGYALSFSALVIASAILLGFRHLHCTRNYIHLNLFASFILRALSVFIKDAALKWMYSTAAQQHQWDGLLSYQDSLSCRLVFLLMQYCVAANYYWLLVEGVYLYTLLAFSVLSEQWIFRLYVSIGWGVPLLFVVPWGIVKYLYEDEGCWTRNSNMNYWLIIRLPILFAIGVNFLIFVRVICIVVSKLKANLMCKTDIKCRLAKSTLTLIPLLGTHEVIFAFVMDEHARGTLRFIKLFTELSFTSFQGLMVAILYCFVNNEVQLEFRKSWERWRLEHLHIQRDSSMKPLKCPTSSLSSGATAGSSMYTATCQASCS

| SMILES | EC50 [nM] |
| --- | --- |
| CNS(=O)(=O)c1ccc(-n2ccn(-c3c4c(nn3-c3cc(C)c(F)c(C)c3)CCN(C(=O)c3cc5cc(C6CCOCC6)ccc5n3[C@@]3(c5noc(=O)[nH]5)C[C@@H]3C)[C@H]4C)c2=O)cc1 [Compound 104a, 4-(3-((S)-2-(4-fluoro-3,5-dimethylphenyl)-4-methyl-5-(1-((1S,2S)-2-methyl-1-(5-oxo-4,5-dihydro-1,2,4-oxadiazol-3-yl)cyclopropyl)-5-(tetrahydro-2H-pyran-4-yl)-1H-indole-2-carbonyl)-4,5,6,7-tetrahydro-2H-pyrazolo[4,3-c]pyridin-3-yl)-2-oxo-2,3-dihydro-1H-imidazol-1-yl)-N-methylbenzenesulfonamide] | 0.081 |
| Cc1cc(-n2nc3c(c2-n2ccn(-c4ccc(N5CCCS5(=O)=O)cc4)c2=O)[C@H](C)N(C(=O)c2cc4cc(C5CCOCC5)ccc4n2[C@@]2(c4noc(=O)[nH]4)C[C@@H]2C)CC3)cc(C)c1F [Compound 107a, 3-((1S,2S)-1-(2-((S)-3-(3-(4-(1,1-dioxidoisothiazolidin-2-yl)phenyl)-2-oxo-2,3-dihydro-1H-imidazol-1-yl)-2-(4-fluoro-3,5-dimethylphenyl)-4-methyl-4,5,6,7-tetrahydro-2H-pyrazolo[4,3-c]pyridine-5-carbonyl)-5-(tetrahydro-2H-pyran-4-yl)-1H-indol-1-yl)-2-methylcyclopropyl)-1,2,4-oxadiazol-5(4H)-one] | 0.18 |
| CCS(=O)(=O)C(C)c1ccc(-n2ccn(-c3c4c(nn3-c3cc(C)c(F)c(C)c3)CCN(C(=O)c3cc5cc(C6CCOCC6)ccc5n3C3(c5noc(=O)[nH]5)CC3)[C@H]4C)c2=O)c(F)c1 (stereo partly drawn) [Compound 113a, 3-(1-(2-((4S)-3-(3-(4-(1-(ethylsulfonyl)ethyl)-2-fluorophenyl)-2-oxo-2,3-dihydro-1H-imidazol-1-yl)-2-(4-fluoro-3,5-dimethylphenyl)-4-methyl-4,5,6,7-tetrahydro-2H-pyrazolo[4,3-c]pyridine-5-carbonyl)-5-(tetrahydro-2H-pyran-4-yl)-1H-indol-1-yl)cyclopropyl)-1,2,4-oxadiazol-5(4H)-one] | 0.55 |
| Cc1cc(-n2nc3c(c2-n2ccn(-c4ccc(S(=O)(=O)C5CC5)cc4)c2=O)[C@H](C)N(C(=O)c2cc4cc(C5CCOCC5)ccc4n2[C@@]2(c4noc(=O)[nH]4)C[C@@H]2C)CC3)cc(C)c1F [Compound 108a, 3-((1S,2S)-1-(2-((S)-3-(3-(4-(cyclopropylsulfonyl)phenyl)-2-oxo-2,3-dihydro-1H-imidazol-1-yl)-2-(4-fluoro-3,5-dimethylphenyl)-4-methyl-4,5,6,7-tetrahydro-2H-pyrazolo[4,3-c]pyridine-5-carbonyl)-5-(tetrahydro-2H-pyran-4-yl)-1H-indol-1-yl)-2-methylcyclopropyl)-1,2,4-oxadiazol-5(4H)-one] | 0.043 |
| Cc1cc(-n2nc3c(c2-n2ccn(-c4ccc(CCS(C)(=O)=O)cc4F)c2=O)[C@H](C)N(C(=O)c2cc4cc(C5CCOCC5)ccc4n2[C@@]2(c4noc(=O)[nH]4)C[C@@H]2C)CC3)cc(C)c1F [Compound 110a, 3-((1S,2S)-1-(2-((S)-2-(4-fluoro-3,5-dimethylphenyl)-3-(3-(2-fluoro-4-(2-(methylsulfonyl)ethyl)phenyl)-2-oxo-2,3-dihydro-1H-imidazol-1-yl)-4-methyl-4,5,6,7-tetrahydro-2H-pyrazolo[4,3-c]pyridine-5-carbonyl)-5-(tetrahydro-2H-pyran-4-yl)-1H-indol-1-yl)-2-methylcyclopropyl)-1,2,4-oxadiazol-5(4H)-one] | 0.05 |
| Cc1cc(-n2nc3c(c2-n2ccn(-c4cccc(N5CCCS5(=O)=O)c4)c2=O)[C@H](C)N(C(=O)c2cc4cc(C5CCOCC5)ccc4n2[C@@]2(c4noc(=O)[nH]4)C[C@@H]2C)CC3)cc(C)c1F [Compound 106a, 3-((1S,2S)-1-(2-((S)-3-(3-(3-(1,1-dioxidoisothiazolidin-2-yl)phenyl)-2-oxo-2,3-dihydro-1H-imidazol-1-yl)-2-(4-fluoro-3,5-dimethylphenyl)-4-methyl-4,5,6,7-tetrahydro-2H-pyrazolo[4,3-c]pyridine-5-carbonyl)-5-(tetrahydro-2H-pyran-4-yl)-1H-indol-1-yl)-2-methylcyclopropyl)-1,2,4-oxadiazol-5(4H)-one] | 0.7 |
| CCS(=O)(=O)Cc1ccc(-n2ccn(-c3c4c(nn3-c3cc(C)c(F)c(C)c3)CCN(C(=O)c3cc5cc(C6CCOCC6)ccc5n3[C@@]3(c5noc(=O)[nH]5)C[C@@H]3C)[C@H]4C)c2=O)cc1 [Compound 103a, 3-((1S,2S)-1-(2-((S)-3-(3-(4-((ethylsulfonyl)methyl)phenyl)-2-oxo-2,3-dihydro-1H-imidazol-1-yl)-2-(4-fluoro-3,5-dimethylphenyl)-4-methyl-4,5,6,7-tetrahydro-2H-pyrazolo[4,3-c]pyridine-5-carbonyl)-5-(tetrahydro-2H-pyran-4-yl)-1H-indol-1-yl)-2-methylcyclopropyl)-1,2,4-oxadiazol-5(4H)-one] | 0.065 |
| Cc1cc(-n2nc3c(c2-n2ccn(-c4cccc(CCS(C)(=O)=O)c4)c2=O)[C@H](C)N(C(=O)c2cc4cc(C5CCOCC5)ccc4n2[C@@]2(c4noc(=O)[nH]4)C[C@@H]2C)CC3)cc(C)c1F [Compound 109a, 3-((1S,2S)-1-(2-((S)-2-(4-fluoro-3,5-dimethylphenyl)-4-methyl-3-(3-(3-(2-(methylsulfonyl)ethyl)phenyl)-2-oxo-2,3-dihydro-1H-imidazol-1-yl)-4,5,6,7-tetrahydro-2H-pyrazolo[4,3-c]pyridine-5-carbonyl)-5-(tetrahydro-2H-pyran-4-yl)-1H-indol-1-yl)-2-methylcyclopropyl)-1,2,4-oxadiazol-5(4H)-one] | 0.24 |
| Cc1cc(-n2nc3c(c2-n2ccn(-c4cccc(CS(C)(=O)=O)c4)c2=O)[C@H](C)N(C(=O)c2cc4cc(C5CCOCC5)ccc4n2[C@@]2(c4noc(=O)[nH]4)C[C@@H]2C)CC3)cc(C)c1F [Compound 102a, 3-((1S,2S)-1-(2-((S)-2-(4-fluoro-3,5-dimethylphenyl)-4-methyl-3-(3-(3-((methylsulfonyl)methyl)phenyl)-2-oxo-2,3-dihydro-1H-imidazol-1-yl)-4,5,6,7-tetrahydro-2H-pyrazolo[4,3-c]pyridine-5-carbonyl)-5-(tetrahydro-2H-pyran-4-yl)-1H-indol-1-yl)-2-methylcyclopropyl)-1,2,4-oxadiazol-5(4H)-one] | 0.27 |
| CCS(=O)(=O)Cc1ccc(-n2ccn(-c3c4c(nn3-c3cc(C)c(F)c(C)c3)CCN(C(=O)c3cc5cc(C6CCOCC6)ccc5n3C3(c5noc(=O)[nH]5)CC3)[C@H]4C)c2=O)cc1 [Compound 112a, (S)-3-(1-(2-(3-(3-(4-((ethylsulfonyl)methyl)phenyl)-2-oxo-2,3-dihydro-1H-imidazol-1-yl)-2-(4-fluoro-3,5-dimethylphenyl)-4-methyl-4,5,6,7-tetrahydro-2H-pyrazolo[4,3-c]pyridine-5-carbonyl)-5-(tetrahydro-2H-pyran-4-yl)-1H-indol-1-yl)cyclopropyl)-1,2,4-oxadiazol-5(4H)-one] | 0.17 |
| Cc1cc(-n2nc3c(c2-n2ccn(-c4ccc(NS(C)(=O)=O)cc4)c2=O)[C@H](C)N(C(=O)c2cc4cc(C5CCOCC5)ccc4n2[C@@]2(c4noc(=O)[nH]4)C[C@@H]2C)CC3)cc(C)c1F [Compound 105a, N-(4-(3-((S)-2-(4-fluoro-3,5-dimethylphenyl)-4-methyl-5-(1-((1S,2S)-2-methyl-1-(5-oxo-4,5-dihydro-1,2,4-oxadiazol-3-yl)cyclopropyl)-5-(tetrahydro-2H-pyran-4-yl)-1H-indole-2-carbonyl)-4,5,6,7-tetrahydro-2H-pyrazolo[4,3-c]pyridin-3-yl)-2-oxo-2,3-dihydro-1H-imidazol-1-yl)phenyl)methanesulfonamide] | 0.036 |

Same assay, conditions: HEK293/CRE-Luc cell line (HDB) stably expressing GLP-1 Receptor; 30 min incubation at 37° C.; read-out: GLP1R cAMP Stimulation DR: pEC50 (M) [Species: Human, Assay Cell Line: HDB] (converted)

| SMILES | EC50 [nM] |
| --- | --- |
| Cc1cc(-n2nc3c(c2-n2ccn(-c4ccc(N5CCCS5(=O)=O)cc4)c2=O)[C@H](C)N(C(=O)c2cc4cc(C5CCOCC5)ccc4n2[C@@]2(c4noc(=O)[nH]4)C[C@@H]2C)CC3)cc(C)c1F [Compound 107a, 3-((1S,2S)-1-(2-((S)-3-(3-(4-(1,1-dioxidoisothiazolidin-2-yl)phenyl)-2-oxo-2,3-dihydro-1H-imidazol-1-yl)-2-(4-fluoro-3,5-dimethylphenyl)-4-methyl-4,5,6,7-tetrahydro-2H-pyrazolo[4,3-c]pyridine-5-carbonyl)-5-(tetrahydro-2H-pyran-4-yl)-1H-indol-1-yl)-2-methylcyclopropyl)-1,2,4-oxadiazol-5(4H)-one] | 0.17 |
| Cc1cc(-n2nc3c(c2-n2ccn(-c4ccc(CS(C)(=O)=O)cc4)c2=O)[C@H](C)N(C(=O)c2cc4cc(C5CCOCC5)ccc4n2[C@@]2(c4noc(=O)[nH]4)C[C@@H]2C)CC3)cc(C)c1F [Compound 101a, 3-((1S,2S)-1-(2-((S)-2-(4-fluoro-3,5-dimethylphenyl)-4-methyl-3-(3-(4-((methylsulfonyl)methyl)phenyl)-2-oxo-2,3-dihydro-1H-imidazol-1-yl)-4,5,6,7-tetrahydro-2H-pyrazolo[4,3-c]pyridine-5-carbonyl)-5-(tetrahydro-2H-pyran-4-yl)-1H-indol-1-yl)-2-methylcyclopropyl)-1,2,4-oxadiazol-5(4H)-one] | 0.0316 |
